Where two headings read alike, the source gives them in different places.
Tests used:
memapsin 2 = memapsin 2 (Homo sapiens, UniProt P56817); experiment: Inhibition of memapsin 2 beta-secretase activity (fluorogenic substrate FS-2); assay type: biochemical; conditions: memapsin 2, pH 4, 37° C.
Outline: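 Memapsin 2 pre-incubated 20 min with compound at pH 4, 37° C, then FS-2 substrate (MCA-SEVNLDAEFK-DNP, APP Swedish cleavage site) added. Rate of fluorescence increase compared with uninhibited controls, fitted to a tight-binding inhibition model.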

memapsin 1 = target: T1, memapsin 1 (Homo sapiens, UniProt Q9Y5Z0); experiment: Inhibition of memapsin 1 beta-secretase activity (substrate peptide ELDLAVEFWHDR, MALDI-TOF); assay type: biochemical
T1 sequence (Q9Y5Z0 63-518): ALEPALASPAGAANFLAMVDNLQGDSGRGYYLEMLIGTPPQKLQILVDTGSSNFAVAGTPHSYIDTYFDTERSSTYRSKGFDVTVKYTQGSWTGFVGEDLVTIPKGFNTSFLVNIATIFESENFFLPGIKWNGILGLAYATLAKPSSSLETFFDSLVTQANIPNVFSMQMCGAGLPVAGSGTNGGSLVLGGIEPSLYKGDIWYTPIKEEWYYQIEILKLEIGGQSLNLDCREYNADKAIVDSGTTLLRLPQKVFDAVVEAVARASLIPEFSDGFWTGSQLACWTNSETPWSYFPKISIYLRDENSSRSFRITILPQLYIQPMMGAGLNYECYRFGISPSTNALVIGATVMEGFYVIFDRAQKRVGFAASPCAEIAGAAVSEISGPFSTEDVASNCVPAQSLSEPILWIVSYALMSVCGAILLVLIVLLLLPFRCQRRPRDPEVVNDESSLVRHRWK

cathepsin D = cathepsin D (Homo sapiens, UniProt P07339); experiment: Inhibition of cathepsin D activity (substrate peptide ELDLAVEFWHDR, MALDI-TOF); assay type: biochemical
[1] = tested on: Aβ production in Chinese hamster ovary cells that over-express human APP695 with the London and Swedish mutations; experiment: Cellular Aβ IC50 determination (Aβ40 sandwich ELISA); assay type: cell-based; conditions: Cricetulus griseus
Outline: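 CHO cells overexpressing human APP695 with London and Swedish mutations, seeded at 10% confluency, treated with compounds up to about 4 μM final (0.4% DMSO). Secreted Aβ40 measured by sandwich ELISA relative to control and fitted to a 4-parameter IC50 model.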

[2] = Brain pharmacokinetic analysis / brain penetration in rats, i.v. bolus; assay type: in vivo; conditions: male, Sprague-Dawley, rat, in vivo, iv, 10 mg/kg
From the text: Quantitative analysis was used to determine the concentration of a test inhibitor, N1-((2S,3R)-4-((5-(2-fluoropropan-2-yl)pyridin-3-yl)methylamino)-3-hydroxy-1-phenylbutan-2-yl)-N3-methyl-N3-((4-methylthiazol-2-yl)methyl)isophthalamide, in biological tissues. The test inhibitor was extracted from a variety of biological samples followed by its selective identification and quantification from a standard curve prepared in the same extracted biological matrix. Briefly, this extraction is accomplished through a simple protein precipitation technique performed on collected plasma. The resultant extractions are then quantified using the LC/MS protocol as detailed herein.
Quantitative analysis was performed through LC/MS analysis. The system was composed of an Eksigent Express LC 100 microflow HPLC system, coupled with an Eksigent CXP C-8AR 0.3*50 mm, or other suitable column, and a Thermo TSQuantum Classic triple quadrupole mass spectrometer running in positive ion, SRM mode. The HPLC buffers were 99.5% H2O, 0.5% formic acid (buffer A) and 99.5% acetonitrile, 0.5% formic acid (buffer B). Typically, a 10 μl aliquot was injected onto the column followed by a 1.5 minute chromatographic analysis. This analysis was conducted at a 20 μl/min flow rate, and composed of a gradient from 15% B to 90% B followed by a 98% B flush to facilitate compound separation and quantitation. Each sample was analyzed in duplicate, with QC, and system blank samples run after every sample set. The column effluent was analyzed in real time by MS/MS to allow the positive identification and quantification of the test inhibitor by compound fingerprint analysis. This was accomplished by allowing only species of 586.3 Da to pass through the first quadrupole, followed by collision induced decay in quadrupole two and scanning analysis of selected daughter ions specific to the test compound in quadrupole three. The collected data was analyzed using the LCQuan software package from Thermo Electron, to determine the levels of the test compound in the samples.
Male Sprague-Dawley Rats (200-400 g) were obtained from Taconic Farms (Hudson, N.Y.) with a pre-implanted jugular vein cannula (JVC) for blood sampling. A solution (5 mg/mL, free base equivalents) of the test inhibitor, N1-((2S,3R)-4-((5-(2-fluoropropan-2-yl)pyridin-3-yl)methylamino)-3-hydroxy-1-phenylbutan-2-yl)-N3-methyl-N3-((4-methylthiazol-2-yl)methyl)isophthalamide mono-citrate salt, was prepared freshly in 35% hydroxypropyl-β-cyclodextrin (HPBCD). Intravenous bolus injection was conducted using a 25 gauge needle via the tail vein. Animals were supplied with water and a commercial rodent diet ad libitum prior to and during the study.
Blood samples (˜100 μl at each time point) for plasma pharmacokinetic (PK) analysis were collected from the JVC cannula into lithium-heparin tubes at 2 min, 5 min, 15 min, 30 min, 45 min, 1 hr, 2 hr, 4 hr, 6 hr and 24 hr post-dose (Group A in Table 2). For compartmental PK analysis, blood and brain were collected from animals in Group B (Table 2) at 15 min, 1 hr, 2 hr, 4 hr, and 6 hr post-dose, with three rats assigned to each time point. Animals were deeply anesthetized with isoflurane and blood collected by cardiocentesis. Plasma separated by centrifugation at 6000 rpm×10 min. Brain hemispheres were subsequently harvested and snap frozen in liquid nitrogen. Plasma and brain samples were subsequently stored at −70° C.
Bioanalysis of the test inhibitor from plasma and brain extracts was performed according to standard procedures. Briefly, 20 μl of plasma was extracted with 100 μl of acetonitrile using a 96-well Solvinert filter plate (Millipore). Samples were subjected to LC/MS/MS analysis using an Eksigent Express LC 100 microflow HPLC system, coupled with an Eksigent CXP C-18AR 0.3*50 mm column, and a Thermo TSQuantum Classic triple quadrupole mass spectrometer running in positive ion, SRM mode. […]

[3] = 20 minutes pre-incubation, read-out: M2Ki
[4] = cellular Aβ production, read-out: IC50

Sequence of memapsin 2 (P56817 46-501): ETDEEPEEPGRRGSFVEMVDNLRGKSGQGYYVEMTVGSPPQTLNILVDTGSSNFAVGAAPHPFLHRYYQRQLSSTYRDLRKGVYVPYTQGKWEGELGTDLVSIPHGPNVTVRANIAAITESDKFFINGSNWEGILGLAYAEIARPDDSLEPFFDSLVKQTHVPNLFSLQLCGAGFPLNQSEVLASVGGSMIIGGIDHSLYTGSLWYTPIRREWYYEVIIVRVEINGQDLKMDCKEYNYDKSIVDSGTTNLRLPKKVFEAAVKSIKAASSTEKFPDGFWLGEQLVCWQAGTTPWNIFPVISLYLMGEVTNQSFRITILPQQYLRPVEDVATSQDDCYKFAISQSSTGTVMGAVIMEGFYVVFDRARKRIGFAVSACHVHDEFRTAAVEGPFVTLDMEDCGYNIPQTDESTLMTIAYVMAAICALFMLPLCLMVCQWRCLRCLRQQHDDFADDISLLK
Sequence of cathepsin D (P07339 65-412, species assumed): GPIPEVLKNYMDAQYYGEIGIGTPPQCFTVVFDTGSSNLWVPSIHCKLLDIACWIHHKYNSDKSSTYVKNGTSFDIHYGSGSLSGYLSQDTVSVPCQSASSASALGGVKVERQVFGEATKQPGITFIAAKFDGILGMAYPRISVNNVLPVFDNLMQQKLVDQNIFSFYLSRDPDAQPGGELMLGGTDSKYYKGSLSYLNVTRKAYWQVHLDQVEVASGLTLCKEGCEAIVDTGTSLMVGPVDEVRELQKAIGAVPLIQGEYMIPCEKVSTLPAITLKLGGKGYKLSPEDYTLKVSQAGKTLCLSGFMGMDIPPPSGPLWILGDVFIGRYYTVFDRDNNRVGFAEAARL

Row | Ki (memapsin 2; read-out: M2 Ki) | Ki (memapsin 1; read-out: M1 Ki) | Ki (cathepsin D; read-out: CathD Ki) | IC50 ([1]; CHO cells, 24 h incubation, Aβ40, read-out: IC50 (cellular Aβ production)) | Ki (memapsin 2; [3]) | Ki (memapsin 1; read-out: M1Ki) | Ki (cathepsin D; read-out: CDKi) | IC50 [1, 4] | SMILES | Penetration (%), brain relative to plasma AUC24 hr [2]
1 | 16.8 nM | 264 nM | 32.3 nM | 6 nM |  |  |  |  | Cc1cc(C(=O)N[C@@H](Cc2ccccc2)[C@H](O)CNCc2cncc(C(C)C)c2)cc(C(=O)N(C)Cc2nc(C)cs2)c1 [N1-((2S,3R)-3-hydroxy-4-((5-isopropylpyridin-3-yl)methylamino)-1-phenylbutan-2-yl)-N3,5-dimethyl-N3-((4-methylthiazol-2-yl)methyl)isophthalamide] | 
2 |  |  |  |  | < 300 nM | 301 to 500 nM | < 300 nM | < 1000 nM | COc1cc(CNC[C@@H](O)[C@H](Cc2ccccc2)NC(=O)c2cccc(C(=O)N(C)Cc3nc(C)cs3)c2)cc(OC)c1 [Compound 8, N1-((2S,3R)-4-(3,5-dimethoxybenzylamino)-3-hydroxy-1-phenylbutan-2-yl)-N3-methyl-N3-((4-methylthiazol-2-yl)methyl)isophthalamide] | 
3 |  |  |  |  | < 300 nM | 301 to 500 nM | < 300 nM | < 1000 nM | Cc1csc(CN(C)C(=O)c2cccc(C(=O)N[C@@H](Cc3ccccc3)[C@H](O)CNCc3ccnc(C(C)C)c3)c2)n1 [Compound 33, N1-((2S,3R)-3-hydroxy-4-((2-isopropylpyridin-4-yl)methylamino)-1-phenylbutan-2-yl)-N3-methyl-N3-((4-methylthiazol-2-yl)methyl)isophthalamide] | 
4 |  |  |  |  | < 300 nM | < 300 nM | < 300 nM | < 1000 nM | Cc1cc(C(=O)N[C@@H](Cc2ccccc2)[C@H](O)CNCc2cncc(C(C)C)c2)cc(C(=O)N(C)Cc2nc(C)cs2)c1 [Compound 32, N1-((2S,3R)-3-hydroxy-4-((5-isopropylpyridin-3-yl)methylamino)-1-phenylbutan-2-yl)-N3,5-dimethyl-N3-((4-methylthiazol-2-yl)methyl)isophthalamide] | 
5 |  |  |  |  | < 300 nM | < 300 nM | < 300 nM | < 1000 nM | COc1cc(C(=O)N[C@@H](Cc2ccccc2)[C@H](O)CNCc2cncc(C(C)C)c2)cc(C(=O)N(C)Cc2nc(C)cs2)c1 [Compound 40, N1-((2S,3R)-3-hydroxy-4-((5-isopropylpyridin-3-yl)methylamino)-1-phenylbutan-2-yl)-5-methoxy-N3-methyl-N3-((4-methylthiazol-2-yl)methyl)isophthalamide] | 
6 |  |  |  |  | < 300 nM | > 501 nM | 301 to 500 nM | < 1000 nM | COc1cccc(CNC[C@@H](O)[C@H](Cc2ccccc2)NC(=O)c2cc(C(=O)N(C)Cc3nc(C)cs3)cc(C3=NCCO3)c2)c1 [Compound 46, 5-(4,5-dihydrooxazol-2-yl)-N1-((2S,3R)-3-hydroxy-4-(3-methoxybenzylamino)-1-phenylbutan-2-yl)-N3-methyl-N3-((4-methylthiazol-2-yl)methyl)isophthalamide] | 
7 |  |  |  |  | < 300 nM | < 300 nM | < 300 nM | < 1000 nM | C[C@@H](NC(=O)c1cc(C(=O)N[C@@H](Cc2ccccc2)[C@H](O)CNCc2cccc(I)c2)cc(N(C)S(C)(=O)=O)c1)c1ccccc1 [Compound 88, N1-((2S,3R)-3-hydroxy-4-(3-iodobenzylamino)-1-phenylbutan-2-yl)-5-(N-methylmethylsulfonamido)-N3-((R)-1-phenylethyl)isophthalamide] | 
8 |  |  |  |  | < 300 nM | < 300 nM | 301 to 500 nM | < 1000 nM | C[C@@H](NC(=O)c1cc(C(=O)N[C@@H](Cc2ccccc2)[C@H](O)CNCc2cccc(Cl)c2)cc(N(C)S(C)(=O)=O)c1)c1ccccc1 [Compound 86, N1-((2S,3R)-4-(3-chlorobenzylamino)-3-hydroxy-1-phenylbutan-2-yl)-5-(N-methylmethylsulfonamido)-N3-((R)-1-phenylethyl)isophthalamide] | 
9 |  |  |  |  | < 300 nM | < 300 nM | < 300 nM | < 1000 nM | C[C@@H](NC(=O)c1cc(C(=O)N[C@@H](Cc2ccccc2)[C@H](O)CNCc2cncc(C(C)(C)F)c2)cc(N(C)S(C)(=O)=O)c1)c1ccccc1 [Compound 89, N1-((2S,3R)-4-((5-(2-fluoropropan-2-yl)pyridin-3-yl)methylamino)-3-hydroxy-1-phenylbutan-2-yl)-5-(N-methylmethylsulfonamido)-N3-((R)-1-phenylethyl)isophthalamide] | 
10 |  |  |  |  | < 300 nM | 301 to 500 nM | < 300 nM | < 1000 nM | COc1cccc(CNC[C@@H](O)[C@H](Cc2ccccc2)NC(=O)c2cc(OC)cc(C(=O)N(C)Cc3nc(C)cs3)c2)c1 [Compound 3, N1-((2S,3R)-3-hydroxy-4-(3-methoxybenzylamino)-1-phenylbutan-2-yl)-5-methoxy-N3-methyl-N3-((4-methylthiazol-2-yl)methyl)isophthalamide] | 
11 |  |  |  |  |  |  |  |  | Cc1csc(CN(C)C(=O)c2cccc(C(=O)N[C@@H](Cc3ccccc3)[C@H](O)CNCc3cncc(C(C)(C)F)c3)c2)n1 [N1-((2S,3R)-4-((5-(2-fluoropropan-2-yl)pyridin-3-yl)methylam] [N1-((2S,3R)-4-((5-(2-fluoropropan-2-yl)pyridin-3-yl)methylamino)-3-hydroxy-1-phenylbutan-2-yl)-N3-methyl-N3-((4-methylthiazol-2-yl)methyl)isophthalamide] | 47%
12 |  |  |  |  | < 300 nM | > 501 nM | < 300 nM | < 1000 nM | C=Cc1cc(C(=O)N[C@@H](Cc2ccccc2)[C@H](O)CNCc2cccc(OC)c2)cc(C(=O)N(C)Cc2nc(C)cs2)c1 [Compound 21, N1-((2S,3R)-3-hydroxy-4-(3-methoxybenzylamino)-1-phenylbutan-2-yl)-N3-methyl-N3-((4-methylthiazol-2-yl)methyl)-5-vinylisophthalamide] | 
13 |  |  |  |  | < 300 nM | < 300 nM | < 300 nM | < 1000 nM | Cc1cc(C(=O)N[C@@H](Cc2ccccc2)[C@H](O)CNCc2cncc(C(C)C)c2)cc(C(=O)N(Cc2nc(C)cs2)C2CC2)c1 [Compound 41, N1-cyclopropyl-N3-((2S,3R)-3-hydroxy-4-((5-isopropylpyridin-3-yl)methylamino)-1-phenylbutan-2-yl)-5-methyl-N1-((4-methylthiazol-2-yl)methyl)isophthalamide] | 

Source: patent US20100286145A1, “ISOPHTHALAMIDE DERIVATIVES INHIBITING BETA-SECRETASE ACTIVITY” (CoMentis, Inc., priority 2007, published 2010)
